Experiment [1] has as its system Raji tumor-bearing nude mice. The experiment in a line: In vivo vasopermeability / biodistribution study, Raji lymphoma model (Lym-1 immunoconjugates).
Description: The Raji lymphoma cell line was used to produce heterotransplants in 6-week-old female nude mice by the subcutaneous injection of a 0.2 ml inoculum consisting of 4 x 10^7 Raji cells and 4 x 10^6 human fetal fibroblast feeder cells in the left thigh. Three days prior to injection, the mice were irradiated with 400 rads using a cesium irradiator to ensure a high take rate of the implanted cells. The tumors were grown for 14-18 days until they grew to approximately 1 cm in diameter.
To test the relative effects of the immunoconjugates on the biodistribution and tumor uptake of Lym-1 or TNT-1 in tumor-bearing mice, separate groups of 4-5 mice were given intravenous injections of 30 µg of antibody alone or antibody conjugate. At 2.5 hr after injection, each group received 50 µCi of ^125I-labeled Lym-1 or TNT-1 F(ab')2 fragment as tracer.
All animals were sacrificed 72 hr later, by sodium pentobarbital overdose, for biodistribution analysis. Various organs, blood, and tumor were removed, weighed, and samples were counted in a gamma counter. For each mouse, data were expressed as tumor:organ ratio (cpm per gram tumor/cpm per gram organ) and percent injected dose/gram (%ID/g).
Each peptide and rhIL-2, as well as their respective immunoconjugates with MAb Lym-1, were assayed for their ability to induce tumor vascular permeability and enhanced antibody uptake in Raji tumor-bearing nude mice.
The target in experiment [2] is nucleohistones expressed in the nucleus of mammalian cells. Kind of experiment: paraformaldehyde-acetone-treated cell assay, 125I-labeled F(ab')2.
Experiment [3] deals with variant of the HLA-Dr antigen expressed on the cell surface of human B-lymphocytes and malignant lymphomas (on Raji Burkitt's lymphoma cells) (human). The experiment in a line: live cell radioimmunoassay on Raji cells, 125I-labeled F(ab')2.

Here are results for three molecules from EP0931836B1, “Vasopermeability enhancing peptide of human interleukin-2 and immunoconjugates thereof” (priority 1998, dated 2004).

Take “3C: synthetic peptide fragment of IL-2, amino acid sequence 22-58 (SEQ ID NO: 1), permeability enhancing peptide (QMILNGINNYKNPKLTRMLTFKFYMPKKATELKHLQC) [Fragment 3C]”: the “vasopermeability effects of Lym-1/IL-2 chemical conjugate” value in experiment [1] (named peptide tested as vasoconjugate (joined to delivery vehicle, Lym-1), relative to IL-2 immunoconjugate) was “approximately 100%”. For the same molecule, the “Vasopermeability (%Lym-1/IL-2)” value in experiment [1] (tumor vascular permeability and enhanced antibody uptake in Raji tumor-bearing nude mice, relative to Lym-1/IL-2, 30-40 pM of peptide per assay) amounted to 0 %Lym-1/IL-2.

As to “125I-labeled F(ab')2 fragment of murine monoclonal antibody TNT-1 (IgG2a)”, the immunoreactivity in experiment [2] was > 80%.

B1: 125I-labeled F(ab')2 fragment of murine monoclonal antibody Lym-1 (IgG2a) (antibody, from another filing, V domains shown)
VH: QLKESGPGLVAPSQSLSITCTISGFSLTSYGVHWVRQPPGKGLEWLVVIWSDGSTTYNSALKSRLSISKDNSKSQVFLKMNSLQTDDTAIYYCASHYGSTLAFASWGHGTLVTVSA
VL: DIQMTQSPASLSASVGETVTIICRASVNIYSYLAWYQQKQGKSPQLLVYNAKILAEGVPSRFSGSGSGTQFSLKINSLQPEDFGSYYCQHHYGTFTFGSGTKLEIK
As for B1, in experiment [3], the percent bound (immunoreactivity) was determined as 80%.
